In series [1] the test system is HSV-1, strain DM2.1 (a resistant isolate). Put plainly: Plaque reduction assay in HFF cells. In kind it is cell-based. The conditions noted are these: Human alphaherpesvirus 1, HFF. The method, then: (§1) E-377 and DM2.1 strains of HSV-1 as well as the MS strain of HSV-2 were a gift of Jack Hill (Burroughs Wellcome). HCMV strain AD169 and VZV strain Ellen were obtained from the American Type Culture Collection (ATCC, Manassas, Va.).
(§2) Monolayers of HFF cells were prepared in six-well plates and incubated at 37° C. for 2 d to allow the cells to reach confluency. Media was then aspirated from the wells and 0.2 ml of virus was added to each of three wells to yield 20-30 plaques in each well. The virus was allowed to adsorb to the cells for 1 h and the plates were agitated every 15 minutes. Compounds were diluted in assay media consisting of MEM with Earl's salts supplemented with 2% FBS, L-glutamine, penicillin, and gentamycin. Solutions ranging from 300 μM to 0.1 μM were added to duplicate wells and the plates were incubated for various times, depending on the virus used. For HSV-1 and -2, the monolayers were then stained with 1% crystal violet in 20% methanol and the unbound dye removed by washing with dH2O. For all other assays, the cell monolayer was stained with 1% Neutral Red solution for 4 h then the stain was aspirated and the cells were washed with PBS. For all assays, plaques were enumerated using a stereomicroscope and the concentration of compound that reduced plaque formation by 50% (EC50) was interpolated from the experimental data.
For orientation: In a plaque reduction assay, fewer plaques than in the control indicate reduced infectivity or spread.

The next series has as its system HSV-2, strain G. In words: Plaque reduction assay in HFF cells. The series is classed as cell-based. The conditions noted are these: for EC50: reduces viral replication by 50%.
The next series has as its system VZV, strain Ellen. Put plainly: Plaque reduction assay in HFF cells. The conditions noted are these: for EC50: Human alphaherpesvirus 3, reduces viral replication by 50%; for EC90: Human alphaherpesvirus 3, reduces viral replication by 90%. In kind it is cell-based. The procedure: HCMV strain AD169 and VZV strain Ellen were obtained from the American Type Culture Collection (ATCC, Manassas, Va.).
as §2, with “PBS.” for “PBS. For all assays, plaques were enumerated using a stereomicroscope and the concentration of compound that reduced plaque formation by 50% (EC50) was interpolated from the experimental data.”
However, unlike assays for HSV-1, HSV-2, MCMV and CMV compounds (where the compound is added to cells prior to virus addition), virus particles are not used in infection in assays for VZV where latent virus in the cells is induced to undergo a lytic infection, since the virions are unstable and infected cells. Thus, in the VZV study, bPEI is added to cell solution and virus is induced from within the cell by induction of lytic infectious cycle.

A further series is described as follows: in vitro. Conditions: human.
The next series relates to HCMV, strain AD169. In words: Plaque reduction assay in HFF cells. In kind it is cell-based. Conditions: for EC50: reduces viral replication by 50%; for EC90: reduces viral replication by 90%. The procedure: as §1, §2
The next series relates to HSV-1, strain E-377. Put plainly: Plaque reduction assay in HFF cells. In kind it is cell-based. Conditions: Human alphaherpesvirus 1, HFF; for EC50: concentration that reduces viral replication by 50%, various trials, each with its control; for EC90: concentration that reduces viral replication by 90%. The method, then:
as §1, §2

For the next series, the system named is cell membrane. The conditions noted are these: cited from earlier work; for permeation of cell membranes: when complexed with free DNA.
Series [2] is described as follows: Parallel cytotoxicity assay in uninfected HFF cells. Conditions: human.
The test system of series [3] is DNA. Put plainly: DNA condensation, internal experimental observations, dint. The series is classed as biochemical.
Series [4] relates to DNA. Conditions: literature values; cited from earlier work.
Another series has as its system phage λ. In words: Intracapsid DNA transition temperature by ITC and SAXS. Also noted: species or system bacteriophage λ. Conditions: for DNA transition temperature T*: WT DNA phage λ. The text has this:
WT bacteriophage λ cI857, with a genome length of 48.5 kb was produced by thermal induction of lysogenic E. coli strain AE1 derived from the 52773 strain. Two phage λ mutants with shorter genome lengths (78 and 94% of the WT DNA length) were produced using a similar procedure. The receptor was the LamB protein purified from pop 154, a strain of E. coli K12 in which the LamB gene has been transduced from Shigella sonnei 3070. Phage and LamB purification details are described in Evilevitch A., et al., Osmotic pressure inhibition of DNA ejection from phage. Proc. Natl. Acad. Sci. U.S.A. 2003; 100:9292-9295 and Ivanovska I., et al., Internal DNA pressure modifies stability of WT phage. Proc. Natl. Acad. Sci. U.S.A. 2007; 104:9603-9608.
All calorimetric measurements were performed using the MicroCal iTC200 system manufactured by GE Healthcare, Life Sciences. […] J. Mol. Biol. 2010; 395:1079-1087.
Small angle X-ray scattering (SAXS) measurements were carried out at the 12-ID B station at the Advanced Photon Source at Argonne National Laboratory. A 12-KeV X-ray beam was used to illuminate the sample with an overall scattering vector q range from 0.006 to 0.850 Å-1. A total of 120 μl of phage solution (˜5×1013 pfu/ml) was injected into a flow-through glass capillary and the solution was oscillated during the SAXS measurement with a flow rate of 10 μl/s. Forty scans with 1 s X-ray exposure time were collected and averaged for each sample. A buffer solution of the dialysis buffer for phage samples was measured using the same SAXS setup, which was further subtracted as the background. After the background subtraction, the scattered intensity I versus q was plotted and the DNA peak region was truncated from 0.18 Å-1 to 0.33 Å-1. This DNA diffraction peak was fitted with a Gaussian curve plus a linear background using function (1), where q0 is the peak center, w is the peak width, A0 is the peak area, k is the slope of the linear background and c is the offset.
[formula] […] Single-Molecule Fluorescence Measurements of Phage Ejection Ensemble Kinetics.
ITC and SAXS assays were used to determine DNA transition temperatures for WT λ-DNA length phage in MgCl2 Tris-buffer with MgCl2 concentrations varied between 5 and 50 mM, see FIGS. 3A-3C. The intracapsid DNA transition occurs at temperature T*, corresponding to either a discontinuity in the linear dependence of ΔHej on temperature (FIG. 3A) or to an abrupt change in the linear decay of the DNA diffraction peak area versus temperature measured by SAXS (FIG. 3B). DNA transition temperatures as a function of Mg-concentration determined by both techniques are in good agreement with each other and are summarized in FIG. 3C. […] However, the inventors have previously shown that at DNA packing density in phage λ, the screening effect of Mg-ions will become progressively smaller with increasing Mg-concentration due to the counter-ion saturation (Evilevitch A., et al., Effects of salt concentrations and bending energy on the extent of ejection of phage genomes. Biophys. J. 2008; 94:1110-1120). Furthermore, if the Mg ion concentration continues to increase, the counterions are forced into regions on the helices that begin to increase the effective repulsions between packaged DNA strands. […]
Background: Isothermal titration calorimetry measures the heat released or taken up as one component is titrated into another.

[5] abbreviates: CC50, parallel to HSV-1 DM2.1 assay.
The mark [6] stands for this setting: CC50, parallel to HSV-1 E-377 assay, reduces cell viability by 50%.
Setting [7] is: CC50, parallel to HSV-2 strain G assay.
The mark [8] stands for this setting: CC50, parallel to VZV Ellen assay.
Setting [9] is: Human betaherpesvirus 5, AD169, HFF.
[10] abbreviates: CC50, parallel to HCMV AD169 assay.

Data on 15 molecules can be found in US10702572B2, “Methods and compounds to suppress viral genome release and packaging” (Carnegie Mellon University, priority 2015, dated 2020).

Where only a bound is given, the exact number is not on record here.

In general, EC50 refers to the concentration giving half of the maximal effect. Broadly, the EC90 is the point of the concentration-response curve where the effect stands at 90%. As to `Nc1nc2c(ncn2COCCO)c(=O)[nH]1` [Acyclovir, reference compound], the concentration for a half-maximal effect (EC50) in series [1] was more than 150 µM; in the series on HSV-2, strain G (Human alphaherpesvirus 2, HFF) it was 3.69 µM; with HSV-2, strain G, 2.88 µM; in the series with VZV, strain Ellen, 5.14 µM. In addition, the EC90 is more than 150 µM in series [1] and 23.8 µM in the series with VZV, strain Ellen. Moreover, the CC50 in “in vitro” (setting [5]), in the series “in vitro” (setting [6]), in the series “in vitro” (setting [7]) and in “in vitro” (setting [8]) was more than 150 µM throughout.
In [1], `Nc1ccn(C[C@@H](CO)OCP(=O)(O)O)c(=O)n1` [Cidofovir, reference compound] returned an EC50 of 2.64 µM and an EC90 of more than 150 µM. Moreover, the CC50 in “in vitro” (setting [5]) is more than 150 µM.
Consider `NCCCN(CCCN)CCCCN(CCCN)CCCN` [DAB-Am-4, Polypropylenimine tetramine dendrimer, generation 1,1,4-diaminobutane core, generation 1 solution], for which the EC50 is 0.51 µM in the series with HCMV, strain AD169 (setting [9]); more than 19 µM in [1]; 0.48 µM in the series on HSV-1, strain E-377. Besides, the EC90 was 3.11 µM with HCMV, strain AD169 (setting [9]); more than 19 µM in [1]; 3.49 µM in the series with HSV-1, strain E-377. The “permeation of cell membranes” value in the series with cell membrane is on record as “permeate cell membranes when complexed with free DNA”. Further, the CC50 in series [2] (setting [10]) was determined as 15.4 µM; in [2] (setting [5]), 28.6 µM; in series [2] (setting [6]), 38.1 µM.
Turning to `NCCCN(CCCN)CCCN(CCCCN(CCCN(CCCN)CCCN)CCCN(CCCN)CCCN)CCCN(CCCN)CCCN` [DAB-Am-8, Polypropylenimine octaamine Dendrimer, generation 2.0,1,4-diaminobutane core], the half-maximal effective concentration (EC50) with HCMV, strain AD169 (setting [9]) was 0.08 µM; in series [1] it was 0.1 µM; in the series with HSV-1, strain E-377, 0.09 µM. The EC90 is more than 3.8 µM with HCMV, strain AD169 (setting [9]); more than 3.8 µM in series [1]; more than 3.8 µM in the series on HSV-1, strain E-377. Besides, the “permeation of cell membranes” value with cell membrane is “permeate cell membranes when complexed with free DNA”. For the same molecule, the CC50 is 4.41 µM in series [2] (setting [10]), 9.32 µM in series [2] (setting [5]) and 13 µM in series [2] (setting [6]).
For the molecule `Nc1nc(O)c2ncn(COC(CO)CO)c2n1` [Ganciclovir, reference compound], the 50% effective concentration (EC50) came to 0.35 µM in the series on HCMV, strain AD169 (setting [9]) and 0.3 µM in the series on HCMV, strain AD169. In the series “in vitro” (setting [10]), this molecule registered a CC50 of more than 150 µM.
In the case of `N.N.N.N.N.N.[Cl-].[Cl-].[Cl-].[Co+3]` [Hexaamminecobalt(III) chloride], the “DNA condensed to (internal experimental observations)” value in the series on DNA [3] (2-100 mM) worked out at 28 Å. In addition, the “dint (DNA condensation observed experimentally)” value in the series on DNA [4] was 27.8-28.2 Å.
Turning to `[Cl-].[Cl-].[Mg+2]` [MgCl2], the “DNA transition temperature T*” value in the series with phage λ (5 mM MgCl2 Tris-buffer) is approximately 22 °C; in the series on phage λ (20 mM MgCl2 Tris-buffer), approximately 37 °C; with phage λ (50 mM MgCl2 Tris-buffer) it was approximately 35 °C.
In the case of `NCCNC(=O)CCN(CCC(=O)NCCN)CCN(CCC(=O)NCCN)CCC(=O)NCCN` [PAMAM Dendrimer G0, PAMAM dendrimer, ethylenediamine core, generation 0.0 solution], the 50% effective concentration (EC50) was more than 0.6 µM in the series on HCMV, strain AD169 (setting [9]); 0.29 µM with HSV-1, strain E-377; 0.09 µM in the series on HSV-2, strain G (Human alphaherpesvirus 2, HFF); more than 0.6 µM in the series on VZV, strain Ellen. Moreover, the EC90 with HCMV, strain AD169 (setting [9]) is more than 0.6 µM; with HSV-1, strain E-377 it was more than 3 µM; in the series with HSV-2, strain G (Human alphaherpesvirus 2, HFF, reduces viral replication by 90%) it was more than 3 µM; in the series on VZV, strain Ellen, more than 0.6 µM. Besides, the “dint, internal observations” value with DNA [3] (0.15-2.50 mM) is listed as 32-35.2 Å. Further, the “dint (DNA condensation observed experimentally)” value with DNA [4] was 31 Å. Besides, in the series with cell membrane (compound alone, previously shown), the “permeation of the cell membrane” value is on record as “permeate the cell membrane”. The CC50 in [2] (setting [10]) amounted to 1.39 µM; in series [2] (setting [6]) it was 3.79 µM; in series [2] (setting [7]), 4.77 µM; in series [2] (setting [8]), 1.17 µM.
In the case of `Cl.Cl.Cl.NCCCCNCCCN` [Spermidine trihydrochloride], in the series on DNA [4], the “dint (DNA condensation observed experimentally)” value is 28.8-29.7 Å.
As to `Cl.Cl.Cl.Cl.NCCCNCCCCNCCCN` [spermine tetrahydrochloride], in the series with phage λ (WT DNA length phage λ, 10 mM MgCl2 Tris-buffer, 1 mM spermine (4+), 20-40° C.), the “intracapsid DNA transition (DNA diffraction peak area vs temperature)” value was “no abrupt DNA transition is observed”. In addition, the “dint, internal experimental observations” value in the series with DNA [3] (0.5-100 mM) is on record as 28.2-29.4 Å. The “dint (DNA condensation observed experimentally)” value in the series with DNA [4] is 28 Å.
With “Arg4+: poly-L-arginine peptide (SEQ ID NO: 21), Charge=+4 (RRRR; Synthetic Arg4+)”, in the series on DNA [3] (1-2.5 mM), the “dint, internal observations” value is reported as 29.7-30.3 Å. Also, the “dint (DNA condensation observed experimentally)” value in the series with DNA [4] is listed as 29.8 Å.
With Tetralysine (KKKK; Synthetic Lys4+), the “dint (DNA condensation observed experimentally)” value in the series with DNA [4] is on record as 34.9 Å.
With Tetraornithine, the “dint (DNA condensation observed experimentally)” value in the series on DNA [4] is recorded as 32.2 Å.
As for Trilysine, the “dint (DNA condensation observed experimentally)” value in the series on DNA [4] was 38.9 Å.
For Triornithine, the “dint (DNA condensation observed experimentally)” value in the series with DNA [4] is 35.6 Å.
